From PMC7824300, “Expanding the Structural Diversity of DNA Methyltransferase Inhibitors” (Pharmaceuticals, 2020)
Read-outs that look alike come from different tables or passages of the source.

What was measured:
DNMT1 = molecular target: T1, DNMT1 (Homo sapiens, UniProt P26358); assay: HotSpot radioisotope methyltransferase assay, DNMT1 (Poly dI-dC substrate); assay type: biochemical; conditions: for inhibition at 100 µM / relative enzymatic activity of DNMT1 / inhibition of DNMT1: 100 μM compound; for relative enzymatic activity of DNMT1: mean of two measurements ± SD; for inhibition of DNMT1: 100 µM
T1 construct: purchased Reaction Biology Corporation (contract screening service)
T1 sequence (P26358 whole entry): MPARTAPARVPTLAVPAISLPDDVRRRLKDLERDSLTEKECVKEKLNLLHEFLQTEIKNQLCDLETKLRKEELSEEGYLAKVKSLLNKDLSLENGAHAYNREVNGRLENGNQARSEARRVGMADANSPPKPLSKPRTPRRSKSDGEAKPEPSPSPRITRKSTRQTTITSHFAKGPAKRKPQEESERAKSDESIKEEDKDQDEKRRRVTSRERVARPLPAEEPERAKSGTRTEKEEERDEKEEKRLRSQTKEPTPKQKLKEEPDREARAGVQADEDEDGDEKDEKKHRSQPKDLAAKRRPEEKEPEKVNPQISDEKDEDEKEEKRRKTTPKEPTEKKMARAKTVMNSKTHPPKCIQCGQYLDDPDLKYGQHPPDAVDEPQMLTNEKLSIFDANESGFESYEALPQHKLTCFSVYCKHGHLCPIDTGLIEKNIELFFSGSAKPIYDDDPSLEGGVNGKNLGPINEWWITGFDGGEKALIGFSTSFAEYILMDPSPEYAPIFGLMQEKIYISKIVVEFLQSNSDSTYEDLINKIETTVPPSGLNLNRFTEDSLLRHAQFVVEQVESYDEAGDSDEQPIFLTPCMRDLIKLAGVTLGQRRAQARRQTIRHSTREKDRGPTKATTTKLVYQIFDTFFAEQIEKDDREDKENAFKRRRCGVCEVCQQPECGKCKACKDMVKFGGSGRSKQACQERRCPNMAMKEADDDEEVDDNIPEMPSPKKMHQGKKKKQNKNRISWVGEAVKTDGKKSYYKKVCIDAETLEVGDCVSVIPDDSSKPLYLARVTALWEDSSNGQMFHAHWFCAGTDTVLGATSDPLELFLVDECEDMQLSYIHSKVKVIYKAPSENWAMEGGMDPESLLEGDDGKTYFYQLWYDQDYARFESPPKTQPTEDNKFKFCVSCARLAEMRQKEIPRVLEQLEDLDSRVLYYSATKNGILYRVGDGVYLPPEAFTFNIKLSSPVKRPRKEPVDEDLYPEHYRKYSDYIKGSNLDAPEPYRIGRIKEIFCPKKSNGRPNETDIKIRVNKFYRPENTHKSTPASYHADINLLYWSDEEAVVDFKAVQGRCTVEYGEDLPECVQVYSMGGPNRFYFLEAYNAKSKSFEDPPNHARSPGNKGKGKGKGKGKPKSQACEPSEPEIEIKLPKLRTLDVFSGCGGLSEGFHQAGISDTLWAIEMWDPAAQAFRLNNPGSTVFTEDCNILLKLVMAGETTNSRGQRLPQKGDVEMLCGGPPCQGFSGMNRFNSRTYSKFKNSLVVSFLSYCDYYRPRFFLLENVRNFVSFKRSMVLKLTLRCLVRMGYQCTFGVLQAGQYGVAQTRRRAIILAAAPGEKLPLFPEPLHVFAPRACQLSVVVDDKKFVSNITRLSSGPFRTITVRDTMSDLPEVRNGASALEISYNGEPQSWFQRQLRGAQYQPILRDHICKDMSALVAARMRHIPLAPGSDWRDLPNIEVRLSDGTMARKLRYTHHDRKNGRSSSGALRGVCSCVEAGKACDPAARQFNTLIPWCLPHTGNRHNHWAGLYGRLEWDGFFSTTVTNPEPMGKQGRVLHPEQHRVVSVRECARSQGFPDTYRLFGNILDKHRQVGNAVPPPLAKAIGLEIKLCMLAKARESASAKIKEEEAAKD
Description: First, the 10 compounds were tested at a single concentration (100 μM) in duplicate in a biochemical DNMT assay. […] Predicted binding modes for the five compounds were studied using molecular docking, implementing a novel re-scoring algorithm recently developed.
The inhibition of the enzymatic activity of DNMT1, DNMT3B, and DNMT3B/3L was tested using the HotSpot^SM platform for methyltransferase assays available at Reaction Biology Corporation. HotSpot^SM is a low volume radioisotope-based assay that uses tritium-labeled AdoMet (^3H-SAM) as a methyl donor. The test compounds diluted in dimethyl sulfoxide were added using acoustic technology (Echo550, Labcyte) into enzyme/substrate mixture in the nano-liter range. The corresponding reactions were commenced by the addition of ^3H-SAM and incubated at 30°C. Total final methylations on the substrate (Poly dI-dC in DNMT1 assay, and Lambda DNA in DNMT3B; DNMT3B/3L assay) were identified by a filter binding method implemented in Reaction Biology. Data analysis was conducted with Graphed Prism software (La Jolla, CA, USA) for curve fits. Reactions were carried out at 1 μM of SAM. […] The 10 compounds were tested first with DNMT1 and DNMT3B at one 100 μM concentration in duplicate. […] Theaflavin was also tested with DNMT3B and DNMT3B/L in 10-dose IC50 with threefold serial dilution starting at 100 μM.

DNMT3B = molecular target: T2, DNMT3B (Homo sapiens, UniProt Q9UBC3); assay: HotSpot radioisotope methyltransferase assay, DNMT3B (Lambda DNA substrate); assay type: biochemical; conditions: for relative enzymatic activity of DNMT3B: mean of two measurements ± SD, 1 μM SAM
T2 construct: purchased Reaction Biology Corporation (contract screening service)
Description: First, the 10 compounds were tested at a single concentration (100 μM) in duplicate in a biochemical DNMT assay. SAH was used as a reference. […] Predicted binding modes for the five compounds were studied using molecular docking, implementing a novel re-scoring algorithm recently developed.
(§1) The inhibition of the enzymatic activity of DNMT1, DNMT3B, and DNMT3B/3L was tested using the HotSpot^SM platform for methyltransferase assays available at Reaction Biology Corporation. HotSpot^SM is a low volume radioisotope-based assay that uses tritium-labeled AdoMet (^3H-SAM) as a methyl donor. The test compounds diluted in dimethyl sulfoxide were added using acoustic technology (Echo550, Labcyte) into enzyme/substrate mixture in the nano-liter range. The corresponding reactions were commenced by the addition of ^3H-SAM and incubated at 30°C. Total final methylations on the substrate (Poly dI-dC in DNMT1 assay, and Lambda DNA in DNMT3B; DNMT3B/3L assay) were identified by a filter binding method implemented in Reaction Biology. Data analysis was conducted with Graphed Prism software (La Jolla, CA, USA) for curve fits. Reactions were carried out at 1 μM of SAM. In all assays, SAH was used as a standard positive control. The 10 compounds were tested first with DNMT1 and DNMT3B at one 100 μM concentration in duplicate. […] Theaflavin was also tested with DNMT3B and DNMT3B/L in 10-dose IC50 with threefold serial dilution starting at 100 μM. The authors have previously contracted the screening services of Reaction Biology Corporation to identify a novel inhibitor of DNMT1 [24].

DNMT3B/3L = molecular target: T3, DNMT3B/3L (Homo sapiens, UniProt Q9UBC3); assay: HotSpot radioisotope methyltransferase assay, DNMT3B/3L (Lambda DNA substrate); assay type: biochemical; conditions: 10-dose, threefold serial dilution starting at 100 μM
T3 construct: purchased Reaction Biology Corporation (contract screening service)
Description: as §1

[1] = molecular target: viral NS5 RNA methyltransferase; parameters: method as in PMID 20108931; conditions: cited from earlier work
[2] = molecular target: viral NS5 RNA methyltransferase; parameters: method as in PMID 20108931; conditions: cited from earlier work; remark: listed apart in the source
A549 cell line = conditions: read-out: IC50 for A549 cell line; human lung cancer cell line harboring wild-type p53; cited from earlier work
U373MG cell line = conditions: read-out: IC50 for U373MG cell line; human glioblastoma cell line harboring inactive mutant p53; cited from earlier work
Hut78 cell line = conditions: read-out: IC50 for Hut78 cell line; cutaneous T cell lymphoma; cited from earlier work
[3] = Table 3, read-out: % Inhibition (DNMT1)
[4] = rounded values, read-out: inhibition of DNMT1
[5] = 10-dose, threefold serial dilution starting at 100 μM, 1 μM SAM, mean of two measurements, read-out: DNMT1 IC50
[6] = 100 μM compound, rounded values

| inhibition at 100 µM (DNMT1; [3]) [%] | relative enzymatic activity of DNMT1 (DNMT1; 1 μM SAM) | inhibition at 100 µM (DNMT1; [4]) [%] | relative enzymatic activity of DNMT3B (DNMT3B; 100 μM compound) | IC50 (DNMT1; [5]) [µM] | Structure (SMILES) | other results |
| --- | --- | --- | --- | --- | --- | --- |
| 26.6 | 73.45 (±3.06) % | 27 | 90.59 (±2.49) % | – | Cc1ccnc2nc(C(=O)Nc3nc(-c4ccc5c(c4)OCO5)cs3)nn12 [CSC026286840] | inhibition of DNMT1 (DNMT1; rounded values): 30% |
| 30 | 70.63 (±0.19) % | 29 | 96.39 (±0.28) % | – | Cc1cc(NC(=O)CN2CCN(c3cc(C(N)=O)c4ccccc4n3)CC2)no1 [CSC027480404] | inhibition of DNMT1 (DNMT1; rounded values): 30% |
| -7.25 | 107.25 (±0.59) % | – | 95.28 (±0.47) % | – | CC(C)(CC(=O)Nc1cccc(Cn2cccn2)c1)C(=O)O [CSC027796832] | – |
| 64.6 | 35.42 (±1.78) % | 65 | 97.42 (±2.49) % | 85.1 | Cc1cc(NCc2nnc(Cc3ccccc3)o2)ccc1C(N)=O [CSC027694519] | – |
| -5.71 | 105.71 (±1.27) % | – | 97.85 (±5.66) % | – | O=C(O)c1ccc(NS(=O)(=O)c2ccc(N3CCCC3=O)cc2)cc1 [CSC027083851] | – |

The remaining lines, values behind:

| Structure (SMILES) | inhibition at 100 µM (DNMT1; [3]) [%] | relative enzymatic activity of DNMT1 (DNMT1; 1 μM SAM) | inhibition at 100 µM (DNMT1; [4]) [%] | relative enzymatic activity of DNMT3B (DNMT3B; 100 μM compound) | IC50 (DNMT1; [5]) [µM] | other results |
| --- | --- | --- | --- | --- | --- | --- |
| O=c1c(O)cc([C@H]2Oc3cc(O)cc(O)c3C[C@H]2O)cc2c([C@H]3Oc4cc(O)cc(O)c4C[C@H]3O)cc(O)c(O)c12 [Theaflavin] | 65.4 | 34.62 (±0.06) % | 65 | 66.75 (±1.11) % | 85.3 | inhibition at 100 µM (DNMT3B; [6]): 33%; IC50 (DNMT3B; 10-dose, threefold serial dilution starting at 100 μM): > 100 µM; IC50 (DNMT3B/3L): > 100 µM |
| Cc1[nH]c2ccccc2c1CCNCc1ccc(/C=C/C(=O)NO)cc1 [Panobinostat, reference compound] | 62.7 | – | 63 | – | – | – |
| COc1ccc(Cl)cc1C(=O)NCCc1ccc(S(=O)(=O)NC(=O)NC2CCCCC2)cc1 [Glyburide, reference compound] | 60 | 40.04 (±0.78) % | 60 | 95.97 (±4.76) % | 55.9 | – |
| Cc1ccc(Cl)cc1NS(=O)(=O)c1ccc(NS(=O)(=O)c2ccc3ccccc3c2)cc1 [compound 7936171] | 62.3 | 37.74 (±2.15) % | 62 | 78.20 (±0.30) % | 78.5 | IC50 (DNMT1; -log value of the IC50, read-out: pIC50 (DNMT1) (converted)): 77.6 µM; inhibition at 100 µM (DNMT3B; [6]): 22%; inhibition of DNMT3B (DNMT3B; 100 μM compound, rounded values, listed as naphthalene sulfonamide, 100 µM): higher than 20%; IC50 [1]: 64.2 µM; EC50 [2]: 12 µM |
| NNc1nncc2ccccc12 [Hydralazine] | – | – | – | – | – | IC50 (A549 cell line): 2000 nM; IC50 (U373MG cell line): 20 µM; IC50 (Hut78 cell line): 30 µM |
| COc1ccc(S(=O)(=O)Nc2c(C)n(C)n(-c3ccccc3)c2=O)cc1C(=O)O [compound 6631802] | 6.74 | 93.26 (±7.97) % | – | 93.54 (±0.54) % | – | – |
